Experimental data from patent US12083115B2, “Methods for treating neurological symptoms associated with lysosomal storage diseases” (Genzyme Corporation, priority 2020, dated 2024).
Read-outs that look alike come from different tables or passages of the source.

Assay: Study 1 Part 1: ascending single-dose PK in healthy men
Type: in vivo, human
Conditions: for half-life / Tmax / AUC(0-inf) / AUC(0-t) / Cmax / Vd/F: male, human, plasma
Text: Study 1 was a 2-part single-center trial in healthy adult male volunteers.
Part 1 of the study enrolled and randomized 55 healthy men (placebo, n=14; 2-, 5-, 15, 25-, 50, and 100-mg doses, n=6 each; 150-mg dose, n=5). Eight healthy men participated in Part 2. […]

CC(C)(NC(=O)O[C@@H]1CN2CCC1CC2)c1csc(-c2ccc(F)cc2)n1 [Compound 2, (S)-quinuclidin-3-yl 2-(2-(4-fluorophenyl)thiazol-4-yl)propan-2-ylcarbamate]
half-life (oral, 5 mg, 5 mg single dose, N = 6, read-out: t1/2, Geometric mean (CV) (converted)): 32.5 h
half-life (oral, 5 mg, 5 mg single dose, N = 6, read-out: t1/2, Mean (SD) (converted)): 33.3 h
Tmax (oral, 15 mg single dose, N = 6, read-out: tmax, median): 3.5 h
AUC(0-inf) (oral, 15 mg, 15 mg single dose, N = 6, read-out: AUCinf, Geometric mean (CV)): 1990 ng·h/mL
AUC(0-inf) (oral, 15 mg, 15 mg single dose, N = 6, read-out: AUCinf, Mean (SD)): 2070 ng·h/mL
AUC(0-t) (oral, 15 mg, 15 mg single dose, N = 6, read-out: AUClast, Geometric mean (CV)): 1760 ng·h/mL
AUC(0-t) (oral, 15 mg, 15 mg single dose, N = 6, read-out: AUClast, Mean (SD)): 1830 ng·h/mL
Cmax (oral, 15 mg, 15 mg single dose, N = 6, read-out: Cmax, Geometric mean (CV)): 50.7 ng/mL
Cmax (oral, 15 mg, 15 mg single dose, N = 6, read-out: Cmax, Mean (SD)): 53 ng/mL
Vd/F (oral, 15 mg, 15 mg single dose, N = 6, read-out: Vss/F, Geometric mean (CV)): 233 L
Vd/F (oral, 15 mg, 15 mg single dose, N = 6, read-out: Vss/F, Mean (SD)): 245 L
half-life (oral, 15 mg, 15 mg single dose, N = 6, read-out: t1/2, Geometric mean (CV) (converted)): 29 h
half-life (oral, 15 mg, 15 mg single dose, N = 6, read-out: t1/2, Mean (SD) (converted)): 29.7 h
AUC(0-inf) (oral, 25 mg, 25 mg single dose, N = 6, read-out: AUCinf, Geometric mean (CV)): 3690 ng·h/mL
AUC(0-inf) (oral, 25 mg, 25 mg single dose, N = 6, read-out: AUCinf, Mean (SD)): 3810 ng·h/mL
AUC(0-t) (oral, 25 mg, 25 mg single dose, N = 6, read-out: AUClast, Geometric mean (CV)): 3240 ng·h/mL
AUC(0-t) (oral, 25 mg, 25 mg single dose, N = 6, read-out: AUClast, Mean (SD)): 3380 ng·h/mL
Cmax (oral, 25 mg, 25 mg single dose, N = 6, read-out: Cmax, Geometric mean (CV)): 79.9 ng/mL
Cmax (oral, 25 mg, 25 mg single dose, N = 6, read-out: Cmax, Mean (SD)): 84.4 ng/mL
Vd/F (oral, 25 mg, 25 mg single dose, N = 6, read-out: Vss/F, Geometric mean (CV)): 228 L
Vd/F (oral, 25 mg, 25 mg single dose, N = 6, read-out: Vss/F, Mean (SD)): 240 L
half-life (oral, 25 mg, 25 mg single dose, N = 6, read-out: t1/2, Geometric mean (CV) (converted)): 29.8 h
half-life (oral, 25 mg, 25 mg single dose, N = 6, read-out: t1/2, Mean (SD) (converted)): 30.2 h
Tmax (oral, 50 mg single dose, N = 6, read-out: tmax, median): 4 h
AUC(0-inf) (oral, 50 mg, 50 mg single dose, N = 6, read-out: AUCinf, Geometric mean (CV)): 6800 ng·h/mL
AUC(0-inf) (oral, 50 mg, 50 mg single dose, N = 6, read-out: AUCinf, Mean (SD)): 7130 ng·h/mL
AUC(0-t) (oral, 50 mg, 50 mg single dose, N = 6, read-out: AUClast, Geometric mean (CV)): 6070 ng·h/mL
AUC(0-t) (oral, 50 mg, 50 mg single dose, N = 6, read-out: AUClast, Mean (SD)): 6310 ng·h/mL
Cmax (oral, 50 mg, 50 mg single dose, N = 6, read-out: Cmax, Geometric mean (CV)): 173 ng/mL
Cmax (oral, 50 mg, 50 mg single dose, N = 6, read-out: Cmax, Mean (SD)): 181 ng/mL
Vd/F (oral, 50 mg, 50 mg single dose, N = 6, read-out: Vss/F, Geometric mean (CV)): 232 L
Vd/F (oral, 50 mg, 50 mg single dose, N = 6, read-out: Vss/F, Mean (SD)): 239 L
half-life (oral, 50 mg, 50 mg single dose, N = 6, read-out: t1/2, Geometric mean (CV) (converted)): 28.5 h
half-life (oral, 50 mg, 50 mg single dose, N = 6, read-out: t1/2, Mean (SD) (converted)): 28.9 h
AUC(0-inf) (oral, 100 mg, 100 mg single dose, N = 6, read-out: AUCinf, Geometric mean (CV)): 14100 ng·h/mL
AUC(0-inf) (oral, 100 mg, 100 mg single dose, N = 6, read-out: AUCinf, Mean (SD)): 14400 ng·h/mL
AUC(0-t) (oral, 100 mg, 100 mg single dose, N = 6, read-out: AUClast, Geometric mean (CV)): 12800 ng·h/mL
AUC(0-t) (oral, 100 mg, 100 mg single dose, N = 6, read-out: AUClast, Mean (SD)): 13000 ng·h/mL
Cmax (oral, 100 mg, 100 mg single dose, N = 6, read-out: Cmax, Geometric mean (CV)): 372 ng/mL
Cmax (oral, 100 mg, 100 mg single dose, N = 6, read-out: Cmax, Mean (SD)): 374 ng/mL
Vd/F (oral, 100 mg, 100 mg single dose, N = 6, read-out: Vss/F, Geometric mean (CV)): 212 L
Vd/F (oral, 100 mg, 100 mg single dose, N = 6, read-out: Vss/F, Mean (SD)): 213 L
half-life (oral, 100 mg, 100 mg single dose, N = 6, read-out: t1/2, Geometric mean (CV) (converted)): 27.6 h
half-life (oral, 100 mg, 100 mg single dose, N = 6, read-out: t1/2, Mean (SD) (converted)): 27.8 h
Tmax (oral, 150 mg single dose, N = 5, read-out: tmax, median): 4 h
AUC(0-inf) (oral, 150 mg, 150 mg single dose, N = 5, read-out: AUCinf, Geometric mean (CV)): 19900 ng·h/mL
AUC(0-inf) (oral, 150 mg, 150 mg single dose, N = 5, read-out: AUCinf, Mean (SD)): 20600 ng·h/mL
AUC(0-t) (oral, 150 mg, 150 mg single dose, N = 5, read-out: AUClast, Geometric mean (CV)): 18000 ng·h/mL
AUC(0-t) (oral, 150 mg, 150 mg single dose, N = 5, read-out: AUClast, Mean (SD)): 18600 ng·h/mL
Cmax (oral, 150 mg, 150 mg single dose, N = 5, read-out: Cmax, Geometric mean (CV)): 520 ng/mL
Cmax (oral, 150 mg, 150 mg single dose, N = 5, read-out: Cmax, Mean (SD)): 529 ng/mL
Vd/F (oral, 150 mg, 150 mg single dose, N = 5, read-out: Vss/F, Geometric mean (CV)): 223 L
Vd/F (oral, 150 mg, 150 mg single dose, N = 5, read-out: Vss/F, Mean (SD)): 228 L
half-life (oral, 150 mg, 150 mg single dose, N = 5, read-out: t1/2, Geometric mean (CV) (converted)): 26.4 h
half-life (oral, 150 mg, 150 mg single dose, N = 5, read-out: t1/2, Mean (SD) (converted)): 26.9 h
half-life (po, single oral doses of 2 to 150 mg, read-out: geometric mean t1/2 (converted)): 28.9 h
median time of Cmax (single oral doses of 2 to 150 mg): 3 to 5.5 h
